According to patent publication US11377442B2, “Small molecule agonists and antagonists of NR2F6 activity” (ZANDER THERAPEUTICS, INC., priority 2016, dated 2022):
Like-named read-outs stand apart in the source and are kept apart here.

Legend:
Assay type in all cases: cell-based
NR2F6 = target: T1, NR2F6 (Homo sapiens, UniProt P10588); assay: NR2F6 agonist screening, Firefly signal cmpd/DMSO; settings: F4
T1 construct: expressed in transfected cells; also transient transfection
T1 sequence (P10588 1-404): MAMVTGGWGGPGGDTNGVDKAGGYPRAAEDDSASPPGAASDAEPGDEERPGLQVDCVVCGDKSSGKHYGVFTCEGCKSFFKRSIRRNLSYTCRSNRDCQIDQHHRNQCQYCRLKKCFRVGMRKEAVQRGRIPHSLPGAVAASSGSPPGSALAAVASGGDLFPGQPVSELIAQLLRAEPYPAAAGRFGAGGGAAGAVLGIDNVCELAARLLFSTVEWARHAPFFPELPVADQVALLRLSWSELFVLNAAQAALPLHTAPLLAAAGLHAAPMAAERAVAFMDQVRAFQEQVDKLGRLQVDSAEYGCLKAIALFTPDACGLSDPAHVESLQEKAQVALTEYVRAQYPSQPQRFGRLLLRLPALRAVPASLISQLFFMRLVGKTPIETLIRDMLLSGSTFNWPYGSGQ

Renilla = Renilla signal in NR2F6 agonist screening, cmpd/DMSO; settings: Renilla, F4
HEK293 pGL4 = assay: Firefly_pGL signal, cmpd/DMSO (pGL4 control cells); settings: Homo sapiens
NR2F6 LBD = target: T2, NR2F6 LBD (Homo sapiens, UniProt P10588); assay: NR2F6 LBD transient transfection; settings: LBD
T2 construct: expressed in transfected cells
T2 sequence (P10588 165-393 limits assumed): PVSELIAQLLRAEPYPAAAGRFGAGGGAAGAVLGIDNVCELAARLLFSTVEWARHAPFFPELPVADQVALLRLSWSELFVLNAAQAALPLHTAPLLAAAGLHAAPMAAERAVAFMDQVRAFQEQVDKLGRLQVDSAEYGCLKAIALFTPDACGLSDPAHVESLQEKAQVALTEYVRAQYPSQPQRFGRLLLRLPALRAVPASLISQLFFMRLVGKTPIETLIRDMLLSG
Procedure: FIGS. 27A and 27B show NR2F6 and LBD transient transfection, respectively, for Compound D28. Higher concentrations were excluded due to lower signal (tox effect). FIGS. 27C and 27D show NR2F6 and LBD transient transfection at different concentrations for different compounds. 9 compounds were tested on LBD transfected cells (40, 10, 2 and 0.5 μM, 4 replicates). FIGS. 27E and 27F show toxicity of Compound D28. 9 compounds were tested for cytotoxicity on LBD transfected cells (40, 10, 2 and 0.5 μM, 4 replicates). […] Cytotoxicity normalized to DMSO is shown in FIG. 27F (0% cytotoxicity corresponds to DMSO signal, 100%—zero signal).
FIGS. 34A and 34B show NR2F6 LBD transient transfection for Compound E21. 9 compounds were tested on LBD transfected cells (40, 10, 2 and 0.5 μM, 4 replicates). FIGS. 34C and 34D show NR2F6 and LBD transient transfection at different concentrations for different compounds. 9 compounds were tested on LBD transfected cells (40, 10, 2 and 0.5 μM, 4 replicates). […] Cytotoxicity normalized to DMSO is shown in FIG. 34D (0% cytotoxicity corresponds to DMSO signal, 100%—zero signal). All compounds were tested at 5, 10, 25 and 50 uM in duplicates. Dog PBMC (1×10^6 cells/mL) were activated by 10 ng/mL PMA+500 ng/mL ionomycin. Data were normalized to controls with (100%)/without (0%) PMA+ionomycin activation.
FIGS. 39A and 39B show NR2F6 LBD transient transfection for Compound F1. 9 compounds were tested on LBD transfected cells (40, 10, 2 and 0.5 μM, 4 replicates). FIGS. 39C and 39D show toxicity of NR2F6 LBD transient transfection. 9 compounds were tested for cytotoxicity on LBD transfected cells (40, 10, 2 and 0.5 μM, 4 replicates). Tox effect causes lower signal compared to DMSO. Cytotoxicity normalized to DMSO is shown in FIG. 39D (0% cytotoxicity corresponds to DMSO signal, 100%—zero signal).

[1] = read-out: Renilla, F4, cmpd/DMSO (mean)
[2] = 1% FBS, read-out: Renilla, F4, 1% FBS, cmpd/DMSO (mean)
[3] = 10% FBS, read-out: Renilla, F4, 10% FBS, cmpd/DMSO (mean)
[4] = HEK293, 0.5 uM, pGL4, read-out: Firefly pGL4, cmpd/DMSO (mean)
[5] = HEK293, 2 uM, pGL4, read-out: Firefly pGL4, cmpd/DMSO (mean)
[6] = HEK293, 10 uM, pGL4, read-out: Firefly pGL4, cmpd/DMSO (mean)
[7] = HEK293, 40 uM, pGL4, read-out: Firefly pGL4, cmpd/DMSO (mean)
[8] = HEK293, pGL4, 1% FBS, 0.5 uM, read-out: Firefly, pGL4, 1% FBS, cmpd/DMSO (mean)
[9] = HEK293, pGL4, 1% FBS, 2 uM, read-out: Firefly, pGL4, 1% FBS, cmpd/DMSO (mean)
[10] = HEK293, pGL4, 1% FBS, 10 uM, read-out: Firefly, pGL4, 1% FBS, cmpd/DMSO (mean)
[11] = HEK293, pGL4, 1% FBS, 40 uM, read-out: Firefly, pGL4, 1% FBS, cmpd/DMSO (mean)
[12] = HEK293, pGL4, 10% FBS, 0.5 uM, read-out: Firefly, pGL4, 10% FBS, cmpd/DMSO (mean)
[13] = HEK293, pGL4, 10% FBS, 2 uM, read-out: Firefly, pGL4, 10% FBS, cmpd/DMSO (mean)
[14] = HEK293, pGL4, 10% FBS, 10 uM, read-out: Firefly, pGL4, 10% FBS, cmpd/DMSO (mean)
[15] = HEK293, pGL4, 10% FBS, 40 uM, read-out: Firefly, pGL4, 10% FBS, cmpd/DMSO (mean)

Firefly F4, cmpd/DMSO (mean) (NR2F6; 0.5 uM)	Firefly F4, cmpd/DMSO (mean) (NR2F6; 2 uM)	Firefly F4, cmpd/DMSO (mean) (NR2F6; 10 uM)	Firefly F4, cmpd/DMSO (mean) (NR2F6; 40 uM)	Firefly, F4, 1% FBS, cmpd/DMSO (mean) (NR2F6; 0.5 uM)	Firefly, F4, 1% FBS, cmpd/DMSO (mean) (NR2F6; 2 uM)	Firefly, F4, 1% FBS, cmpd/DMSO (mean) (NR2F6; 10 uM)	Firefly, F4, 1% FBS, cmpd/DMSO (mean) (NR2F6; 40 uM)	Firefly, F4, 10% FBS, cmpd/DMSO (mean) (NR2F6; 0.5 uM)	Firefly, F4, 10% FBS, cmpd/DMSO (mean) (NR2F6; 2 uM)	Firefly, F4, 10% FBS, cmpd/DMSO (mean) (NR2F6; 10 uM)	Firefly, F4, 10% FBS, cmpd/DMSO (mean) (NR2F6; 40 uM)	Structure (SMILES)	fold induction at 0.5 µM (Renilla; [1])	fold induction at 2 µM (Renilla; [1])	fold induction at 10 µM (Renilla; [1])	fold induction at 40 µM (Renilla; [1])	fold induction at 0.5 µM (Renilla; [2])	fold induction at 2 µM (Renilla; [2])	fold induction at 10 µM (Renilla; [2])	fold induction at 40 µM (Renilla; [2])	further results
1.0	1.3	1.3	1.9	1.2	1.1	1.1	1.8	1.2	1.0	1.1	2.2	O=S1(=O)C[C@H](NCc2ccncc2)[C@@H](S(=O)(=O)c2cccs2)C1 [Compound D108]	1	1	1.1	1.2	1	1.2	1.1	1.4	fold induction at 0.5 µM (Renilla; [3]): 1; fold induction at 2 µM (Renilla; [3]): 0.9; fold induction at 10 µM (Renilla; [3]): 1; fold induction at 40 µM (Renilla; [3]): 1.4; fold induction at 0.5 µM (HEK293 pGL4; [4]): 0.9; fold induction at 2 µM (HEK293 pGL4; [5]): 1; fold induction at 10 µM (HEK293 pGL4; [6]): 1.2; fold induction at 40 µM (HEK293 pGL4; [7]): 1.5; fold induction at 0.5 µM (HEK293 pGL4; [8]): 1.5; fold induction at 2 µM (HEK293 pGL4; [9]): 1.2; fold induction at 10 µM (HEK293 pGL4; [10]): 1.2; fold induction at 40 µM (HEK293 pGL4; [11]): 1.1; fold induction at 0.5 µM (HEK293 pGL4; [12]): 1.1; fold induction at 2 µM (HEK293 pGL4; [13]): 1.1; fold induction at 10 µM (HEK293 pGL4; [14]): 1.1; fold induction at 40 µM (HEK293 pGL4; [15]): 1.4; Firefly LBD, cmpd/DMSO (mean) (NR2F6 LBD; 0.5 uM): 1.0; Firefly LBD, cmpd/DMSO (mean) (NR2F6 LBD; 2 uM): 1.4; Firefly LBD, cmpd/DMSO (mean) (NR2F6 LBD; 10 uM): 1.3; Firefly LBD, cmpd/DMSO (mean) (NR2F6 LBD; 40 uM): 2.1
1.0	1.4	1.8	1.3	0.8	0.8	1.2	0.9	1.5	0.9	1.0	1.0	CC(=O)Nc1ccc(S(=O)(=O)[C@H]2CS(=O)(=O)C[C@@H]2NC2CC2)cc1 [Compound D133]	1	1	1.1	1.1	1	1	1	1.1	fold induction at 0.5 µM (Renilla; [3]): 0.9; fold induction at 2 µM (Renilla; [3]): 0.9; fold induction at 10 µM (Renilla; [3]): 1; fold induction at 40 µM (Renilla; [3]): 1; fold induction at 0.5 µM (HEK293 pGL4; [4]): 1.1; fold induction at 2 µM (HEK293 pGL4; [5]): 1.1; fold induction at 10 µM (HEK293 pGL4; [6]): 1.9; fold induction at 40 µM (HEK293 pGL4; [7]): 1.1; fold induction at 0.5 µM (HEK293 pGL4; [8]): 1.3; fold induction at 2 µM (HEK293 pGL4; [9]): 1.1; fold induction at 10 µM (HEK293 pGL4; [10]): 1.3; fold induction at 40 µM (HEK293 pGL4; [11]): 1; fold induction at 0.5 µM (HEK293 pGL4; [12]): 0.9; fold induction at 2 µM (HEK293 pGL4; [13]): 0.9; fold induction at 10 µM (HEK293 pGL4; [14]): 1.3; fold induction at 40 µM (HEK293 pGL4; [15]): 1.2; Firefly LBD, cmpd/DMSO (mean) (NR2F6 LBD; 0.5 uM): 1.1; Firefly LBD, cmpd/DMSO (mean) (NR2F6 LBD; 2 uM): 1.1; Firefly LBD, cmpd/DMSO (mean) (NR2F6 LBD; 10 uM): 1.4; Firefly LBD, cmpd/DMSO (mean) (NR2F6 LBD; 40 uM): 1.1
